Our source for the IC50 and IC50 ratio values is ChEMBL document CHEMBL1134774, “Design, synthesis, and structure-activity relationships of a series of 3-[2-(1-benzylpiperidin-4-yl)ethylamino]pyridazine derivatives as acetylcholinesterase inhibitors” (J Med Chem, 2001).

The target of experiment [1] is Acetylcholinesterase (Electrophorus electricus, UniProt O42275).
Description: In vitro inhibition of electric eel acetylcholinesterase
The target in experiment [2] is T1, Choline O-acetyltransferase (Rattus norvegicus) (UniProt P32738).
T1 sequence (whole entry): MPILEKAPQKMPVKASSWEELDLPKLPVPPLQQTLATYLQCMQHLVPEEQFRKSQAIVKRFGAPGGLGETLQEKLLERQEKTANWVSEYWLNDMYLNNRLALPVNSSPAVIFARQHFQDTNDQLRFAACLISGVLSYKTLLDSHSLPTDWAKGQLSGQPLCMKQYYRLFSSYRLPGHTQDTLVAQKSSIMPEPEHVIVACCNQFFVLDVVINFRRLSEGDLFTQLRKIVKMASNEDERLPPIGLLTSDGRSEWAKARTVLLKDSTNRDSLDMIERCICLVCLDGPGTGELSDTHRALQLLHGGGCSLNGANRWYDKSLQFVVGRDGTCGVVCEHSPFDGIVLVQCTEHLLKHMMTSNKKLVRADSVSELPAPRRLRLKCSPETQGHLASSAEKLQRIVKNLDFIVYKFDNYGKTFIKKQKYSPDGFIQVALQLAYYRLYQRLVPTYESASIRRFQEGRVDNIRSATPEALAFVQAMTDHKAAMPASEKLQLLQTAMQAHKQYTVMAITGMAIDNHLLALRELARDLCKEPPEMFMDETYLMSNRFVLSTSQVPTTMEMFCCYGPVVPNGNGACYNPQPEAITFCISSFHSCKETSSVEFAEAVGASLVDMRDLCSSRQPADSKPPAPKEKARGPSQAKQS
As to the kind of experiment: IC50 (hBuChE/hAChE) ratio of the compound.

The target of experiment [3] is Acetylcholinesterase (Homo sapiens, UniProt P22303).
Sequence of Acetylcholinesterase (Homo sapiens, UniProt P22303) (P22303 whole entry): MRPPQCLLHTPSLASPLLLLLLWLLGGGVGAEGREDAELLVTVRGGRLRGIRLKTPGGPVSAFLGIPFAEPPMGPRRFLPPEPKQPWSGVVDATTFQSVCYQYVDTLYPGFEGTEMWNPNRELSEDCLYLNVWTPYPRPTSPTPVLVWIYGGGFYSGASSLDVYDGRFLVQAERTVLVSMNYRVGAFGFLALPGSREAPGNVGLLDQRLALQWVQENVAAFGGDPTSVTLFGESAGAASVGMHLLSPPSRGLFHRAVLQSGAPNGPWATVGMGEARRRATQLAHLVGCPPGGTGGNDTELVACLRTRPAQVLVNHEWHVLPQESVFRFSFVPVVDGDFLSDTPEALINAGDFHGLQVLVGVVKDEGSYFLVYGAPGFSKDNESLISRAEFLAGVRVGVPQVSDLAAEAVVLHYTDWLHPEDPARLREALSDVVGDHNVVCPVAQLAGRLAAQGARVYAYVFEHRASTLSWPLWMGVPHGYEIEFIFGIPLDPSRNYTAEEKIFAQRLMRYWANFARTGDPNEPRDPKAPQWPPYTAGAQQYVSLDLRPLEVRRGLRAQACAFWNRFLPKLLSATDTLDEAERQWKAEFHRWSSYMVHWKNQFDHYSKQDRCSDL
Description: In vitro inhibition of acetylcholinesterase from human erythrocytes
The target of experiment [4] is Cholinesterase (Homo sapiens, UniProt P06276).
Sequence of Cholinesterase (P06276 whole entry): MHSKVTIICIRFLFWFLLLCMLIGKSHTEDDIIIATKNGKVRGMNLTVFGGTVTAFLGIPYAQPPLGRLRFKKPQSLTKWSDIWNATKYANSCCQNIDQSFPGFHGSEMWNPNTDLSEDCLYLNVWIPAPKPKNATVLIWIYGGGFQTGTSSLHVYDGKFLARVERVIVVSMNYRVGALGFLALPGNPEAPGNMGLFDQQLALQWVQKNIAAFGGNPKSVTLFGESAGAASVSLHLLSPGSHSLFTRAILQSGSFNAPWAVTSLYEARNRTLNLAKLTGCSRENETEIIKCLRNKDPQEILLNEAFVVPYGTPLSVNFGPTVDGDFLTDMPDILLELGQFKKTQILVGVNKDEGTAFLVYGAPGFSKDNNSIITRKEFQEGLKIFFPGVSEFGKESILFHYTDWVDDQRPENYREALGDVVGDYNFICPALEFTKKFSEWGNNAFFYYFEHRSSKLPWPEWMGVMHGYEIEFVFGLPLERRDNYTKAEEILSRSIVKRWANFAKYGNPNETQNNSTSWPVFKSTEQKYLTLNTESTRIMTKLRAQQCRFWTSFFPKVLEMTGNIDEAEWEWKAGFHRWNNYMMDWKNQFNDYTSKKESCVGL
Description: Inhibition of butyrylcholinesterase from human serum

Each structure is given as a SMILES string. pIC50: −log10 of the molar value.

Sequence of Acetylcholinesterase (Electrophorus electricus, UniProt O42275) (O42275 whole entry): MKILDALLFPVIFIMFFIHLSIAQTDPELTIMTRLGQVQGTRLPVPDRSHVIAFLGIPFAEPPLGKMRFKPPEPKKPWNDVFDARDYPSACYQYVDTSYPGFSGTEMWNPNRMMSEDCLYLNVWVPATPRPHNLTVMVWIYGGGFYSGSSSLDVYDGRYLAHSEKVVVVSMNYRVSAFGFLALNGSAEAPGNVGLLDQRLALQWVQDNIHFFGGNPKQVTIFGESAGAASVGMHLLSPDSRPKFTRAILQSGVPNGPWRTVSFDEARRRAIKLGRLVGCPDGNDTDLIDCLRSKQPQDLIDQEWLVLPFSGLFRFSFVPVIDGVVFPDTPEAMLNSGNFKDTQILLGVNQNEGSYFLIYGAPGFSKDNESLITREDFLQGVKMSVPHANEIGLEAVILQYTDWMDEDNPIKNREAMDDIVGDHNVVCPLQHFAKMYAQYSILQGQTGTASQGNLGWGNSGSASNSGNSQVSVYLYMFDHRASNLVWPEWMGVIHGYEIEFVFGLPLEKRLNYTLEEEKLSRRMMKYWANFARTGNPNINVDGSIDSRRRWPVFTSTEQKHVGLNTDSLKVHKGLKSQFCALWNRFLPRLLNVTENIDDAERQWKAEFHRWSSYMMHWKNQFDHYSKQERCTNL

One may read the pIC50 as the IC50 on a negative log10 scale, so that one unit is a factor of ten. Read a high pIC50 as a low IC50. The molecule `CN(C)c1ccc(-c2ccc(NCCC3CCN(Cc4ccccc4)CC3)nn2)cc1` had a pIC50 in experiment [1] of 6.68.

Take `CCc1cc(=NCCC2CCN(Cc3ccccc3)CC2)[nH]nc1-c1ccccc1`: the IC50 ratio in experiment [2] amounted to 14. Besides, the pIC50 in experiment [1] was 7.57; in experiment [3], 7.18; in experiment [4] it was 6.04.

Turning to `O=C(CNc1ccc(-c2ccccc2)nn1)N1CCN(Cc2ccccc2)CC1`, the pIC50 in experiment [1] is 4.82.

As to `COc1ccccc1-c1ccc(NCCC2CCN(Cc3ccccc3)CC2)nn1`, the pIC50 in experiment [1] was 6.96.

In experiment [1], `Cc1cc(-c2ccccc2)nnc1NCCC1CCN(Cc2ccccc2)CC1` showed a pIC50 of 6.49.

In the case of `Fc1ccc(-c2ccc(NCCC3CCN(Cc4ccccc4)CC3)nn2)cc1`, the pIC50 in experiment [1] is 6.46.

With `c1ccc(CN2CCC(CCNc3cc4c(nn3)-c3ccccc3CC4)CC2)cc1`, in experiment [2], the IC50 ratio was determined as 1.5. Further, the pIC50 in experiment [1] is 7.41; in experiment [3], 6.72; in experiment [4], 6.55.

With `Clc1ccc(NCCC2CCN(Cc3ccccc3)CC2)nn1`, the pIC50 in experiment [1] was 7.14.

With `c1ccc(CN2CCC(CCNc3cccnn3)CC2)cc1`, the pIC50 in experiment [1] was 6.62.

Consider `O=C(CNc1ccc(-c2ccccc2)nn1)N1CCC(Cc2ccccc2)CC1`, for which the pIC50 in experiment [1] was 3.92.

`Clc1ccccc1-c1ccc(NCCC2CCN(Cc3ccccc3)CC2)nn1`: the pIC50 in experiment [1] is 7.10.

Consider `O=C(CN1CCN(Cc2ccccc2)CC1)Nc1ccc(-c2ccccc2)nn1`, for which the pIC50 in experiment [1] is 4.77.

Take `FC(F)(F)c1cc(-c2ccc(NCCC3CCN(Cc4ccccc4)CC3)nn2)cc(C(F)(F)F)c1`: the pIC50 in experiment [1] is 7.25.

In experiment [1], `c1ccc(CN2CCC(CCN=c3[nH]nc(-c4ccccc4)c4ccccc34)CC2)cc1` gave a pIC50 of 6.36.

For `c1ccc(CN2CCC(CCN=c3cc4c(n[nH]3)-c3ccccc3C4)CC2)cc1`, the IC50 ratio in experiment [2] was determined as 3.1. Moreover, the pIC50 in experiment [1] was 8.00; in experiment [3], 7.13; in experiment [4] it was 6.64.

In experiment [1], `Cc1ccccc1-c1ccc(NCCC2CCN(Cc3ccccc3)CC2)nn1` had a pIC50 of 7.05.

In turn, `CC(C)c1cc(-c2ccccc2)nnc1NCCC1CCN(Cc2ccccc2)CC1` showed a pIC50 in experiment [1] of 6.37.

As to `c1ccc(CN2CCC(CCOc3ccc(-c4ccccc4)nn3)CC2)cc1`, the values for the pIC50 in experiment [1], in experiment [3] and in experiment [4] were 3.85, 6.15 and 5.80, respectively.

As for `c1ccc(CN2CCC(CCNc3ccc(-c4cccnc4)nn3)CC2)cc1`, in experiment [1], the pIC50 is 7.24.

`CC(=O)c1cccc(-c2ccc(NCCC3CCN(Cc4ccccc4)CC3)nn2)c1` had a pIC50 in experiment [1] of 7.27.

`c1ccc(CN2CCC(CCSc3ccc(-c4ccccc4)nn3)CC2)cc1`: the pIC50 in experiment [1] was 4.20; in experiment [3], 6.33; in experiment [4], 6.32.

Turning to `c1ccc(CN2CCC(CCNc3ccc(-c4ccc5ccccc5c4)nn3)CC2)cc1`, in experiment [1], the pIC50 was 7.25.

`Cc1cc(C)c(-c2ccc(NCCC3CCN(Cc4ccccc4)CC3)nn2)c(C)c1` had a pIC50 in experiment [1] of 5.52.

Take `Cc1cc(=NCCC2CCN(Cc3ccccc3)CC2)[nH]nc1-c1ccccc1`: the IC50 ratio in experiment [2] worked out at 24. The results for the pIC50 in experiment [1], in experiment [3] and in experiment [4] were 7.68, 7.41 and 6.03, respectively.

As to `c1ccc(CN2CCC(CCNc3cc4ccc5ccccc5c4nn3)CC2)cc1`, the pIC50 in experiment [1] was 7.66; in experiment [3], 6.72; in experiment [4], 6.57.

Take `COc1ccc(NCCC2CCN(Cc3ccccc3)CC2)nn1`: the pIC50 in experiment [1] was 6.66.

For the molecule `c1ccc(CN2CCC(CCNc3ccc(-c4ccccc4)nn3)CC2)cc1`, the IC50 ratio in experiment [2] was 5. Moreover, the pIC50 in experiment [1] was 6.92.

Molecule `CCCc1cc(=NCCC2CCN(Cc3ccccc3)CC2)[nH]nc1-c1ccccc1` showed a pIC50 in experiment [1] of 7.21.

In turn, `CC(=O)Nc1cccc(-c2ccc(NCCC3CCN(Cc4ccccc4)CC3)nn2)c1` had a pIC50 in experiment [1] of 7.24.

For `c1ccc(CN2CCC(CCNc3cc4c(nn3)-c3ccccc3CCC4)CC2)cc1`, the pIC50 was 7.66 in experiment [1], 6.92 in experiment [3] and 6.29 in experiment [4].

`c1ccc(CC2CCN(CCNc3ccc(-c4ccccc4)nn3)CC2)cc1`: the pIC50 in experiment [1] is 4.62.

`O=C(CC1CCN(Cc2ccccc2)CC1)Nc1ccc(-c2ccccc2)nn1` gave a pIC50 in experiment [1] of 5.38.

For `c1ccc(CN2CCC(CCNc3ccc(-c4cccs4)nn3)CC2)cc1`, in experiment [1], the pIC50 is 7.01.

Take `N#Cc1ccc(-c2ccc(NCCC3CCN(Cc4ccccc4)CC3)nn2)cc1`: the pIC50 in experiment [1] was 7.00.

With `CCc1ccccc1-c1ccc(NCCC2CCN(Cc3ccccc3)CC2)nn1`, the pIC50 in experiment [1] was 7.06.

In experiment [1], `O=C(CN1CCC(Cc2ccccc2)CC1)Nc1ccc(-c2ccccc2)nn1` had a negative logarithm of the IC50 (pIC50) of 4.74.
